Measurements from patent publication US20240300932A1, “N-PHENYLIMINE DERIVATIVE AND PREPARATION METHOD AND USE THEREOF” (Guizhou University, priority 2023, published 2024).

Experiments:
Experiment in all cases: Post-emergence herbicidal activity test (stem and leaf spray, pot culture)
Assay type in all cases: in vivo
Conditions in all cases: 3 weeks after spraying
Portulaca oleracea = system: Portulaca oleracea
Method in brief: (§1)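 Greenhouse pot-grown weeds (loam, pH 7) sprayed post-emergence at 2- to 3-leaf stage with acetone/Tween 80 formulation plus 1.5 liters/ha methyl oleate, at 10, 5 and 2.5 g/mu. Fresh-weight growth control rated 3 weeks later on 0–5 grade scale.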

Amaranthus retroflexus = system: Amaranthus retroflexus
Method in brief: as §1

Setaria viridis = system: Setaria viridis
Method in brief: as §1

Echinochloa crusgalli = system: Echinochloa crusgalli
Method in brief: as §1

Abutilon theophrasti = system: Abutilon theophrasti
Method in brief: as §1

Trifoliumre pensL. = system: Trifoliumre pensL.
Method in brief: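 Rates of 10, 5 and 2.5 g/mu were applied in a single spray-tower treatment to 2–3-leaf plants, thinned to 10 per pot. Formulation: acetone solution, Tween 80, 1.5 L/ha methyl oleate synergist. Weed response assessed after 3 further greenhouse weeks; mean of three experiments.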

With `O=C1C2=C(CCCC2)C(=O)N1c1cc(OCc2nnc(-c3ccc(Cl)cc3F)o2)c(Cl)cc1F` [Compound B19] the “Post-emergence herbicidal activity, P. oleracea (grade)” value (Portulaca oleracea; dosage 2.5 g/mu) was 5 (Grade 5: the growth control rate is greater than or equal to 85%), the “Post-emergence herbicidal activity, P. oleracea (grade)” value (Portulaca oleracea; dosage 5 g/mu) was 5 (Grade 5: the growth control rate is greater than or equal to 85%) and the “Post-emergence herbicidal activity, P. oleracea (grade)” value (Portulaca oleracea; dosage 10 g/mu) was 5 (Grade 5: the growth control rate is greater than or equal to 85%). The “Post-emergence herbicidal activity, A. retroflexus (grade)” value (Amaranthus retroflexus; dosage 2.5 g/mu) was 5 (Grade 5: the growth control rate is greater than or equal to 85%), the “Post-emergence herbicidal activity, A. retroflexus (grade)” value (Amaranthus retroflexus; dosage 5 g/mu) was 5 (Grade 5: the growth control rate is greater than or equal to 85%) and the “Post-emergence herbicidal activity, A. retroflexus (grade)” value (Amaranthus retroflexus; dosage 10 g/mu) was 5 (Grade 5: the growth control rate is greater than or equal to 85%). For the same compound, the “Post-emergence herbicidal activity, S. viridis (grade)” value (Setaria viridis; dosage 2.5 g/mu) was 2 (Grade 2: the growth control rate is greater than or equal to 20% and less than 40%), the “Post-emergence herbicidal activity, S. viridis (grade)” value (Setaria viridis; dosage 5 g/mu) was 3 (Grade 3: the growth control rate is greater than or equal to 40% and less than 60%) and the “Post-emergence herbicidal activity, S. viridis (grade)” value (Setaria viridis; dosage 10 g/mu) was 4 (Grade 4: the growth control rate is greater than or equal to 60% and less than 85%). The “Post-emergence herbicidal activity, E. crusgalli (grade)” value (Echinochloa crusgalli; dosage 2.5 g/mu) was 1 (Grade 1: the growth control rate is greater than or equal to 5% and less than 20%), the “Post-emergence herbicidal activity, E. crusgalli (grade)” value (Echinochloa crusgalli; dosage 5 g/mu) was 2 (Grade 2: the growth control rate is greater than or equal to 20% and less than 40%) and the “Post-emergence herbicidal activity, E. crusgalli (grade)” value (Echinochloa crusgalli; dosage 10 g/mu) was 3 (Grade 3: the growth control rate is greater than or equal to 40% and less than 60%). The “Post-emergence herbicidal activity, A. theophrasti (grade)” value (Abutilon theophrasti; dosage 2.5 g/mu) was 5 (Grade 5: the growth control rate is greater than or equal to 85%), the “Post-emergence herbicidal activity, A. theophrasti (grade)” value (Abutilon theophrasti; dosage 5 g/mu) was 5 (Grade 5: the growth control rate is greater than or equal to 85%) and the “Post-emergence herbicidal activity, A. theophrasti (grade)” value (Abutilon theophrasti; dosage 10 g/mu) was 5 (Grade 5: the growth control rate is greater than or equal to 85%). The “Post-emergence herbicidal activity, Trifoliumre pensL. (grade)” value (Trifoliumre pensL.; dosage 2.5 g/mu) was 5 (Grade 5: the growth control rate is greater than or equal to 85%), the “Post-emergence herbicidal activity, Trifoliumre pensL. (grade)” value (Trifoliumre pensL.; dosage 5 g/mu) was 5 (Grade 5: the growth control rate is greater than or equal to 85%) and the “Post-emergence herbicidal activity, Trifoliumre pensL. (grade)” value (Trifoliumre pensL.; dosage 10 g/mu) was 5 (Grade 5: the growth control rate is greater than or equal to 85%).

In the case of `O=C1C2=C(CCCC2)C(=O)N1c1cc(OCc2nnc(-c3cccc(I)c3)o2)c(Cl)cc1F` [Compound B11], the “Post-emergence herbicidal activity, P. oleracea (grade)” value (Portulaca oleracea; dosage 2.5 g/mu) is reported as 5 (Grade 5: the growth control rate is greater than or equal to 85%), the “Post-emergence herbicidal activity, P. oleracea (grade)” value (Portulaca oleracea; dosage 5 g/mu) is reported as 5 (Grade 5: the growth control rate is greater than or equal to 85%) and the “Post-emergence herbicidal activity, P. oleracea (grade)” value (Portulaca oleracea; dosage 10 g/mu) is reported as 5 (Grade 5: the growth control rate is greater than or equal to 85%). For the same compound, the “Post-emergence herbicidal activity, A. retroflexus (grade)” value (Amaranthus retroflexus; dosage 2.5 g/mu) was 4 (Grade 4: the growth control rate is greater than or equal to 60% and less than 85%), the “Post-emergence herbicidal activity, A. retroflexus (grade)” value (Amaranthus retroflexus; dosage 5 g/mu) was 5 (Grade 5: the growth control rate is greater than or equal to 85%) and the “Post-emergence herbicidal activity, A. retroflexus (grade)” value (Amaranthus retroflexus; dosage 10 g/mu) was 5 (Grade 5: the growth control rate is greater than or equal to 85%). For the same compound, the “Post-emergence herbicidal activity, S. viridis (grade)” value (Setaria viridis; dosage 2.5 g/mu) was 2 (Grade 2: the growth control rate is greater than or equal to 20% and less than 40%), the “Post-emergence herbicidal activity, S. viridis (grade)” value (Setaria viridis; dosage 5 g/mu) was 3 (Grade 3: the growth control rate is greater than or equal to 40% and less than 60%) and the “Post-emergence herbicidal activity, S. viridis (grade)” value (Setaria viridis; dosage 10 g/mu) was 4 (Grade 4: the growth control rate is greater than or equal to 60% and less than 85%). The “Post-emergence herbicidal activity, E. crusgalli (grade)” value (Echinochloa crusgalli; dosage 2.5 g/mu) was 1 (Grade 1: the growth control rate is greater than or equal to 5% and less than 20%), the “Post-emergence herbicidal activity, E. crusgalli (grade)” value (Echinochloa crusgalli; dosage 5 g/mu) was 2 (Grade 2: the growth control rate is greater than or equal to 20% and less than 40%) and the “Post-emergence herbicidal activity, E. crusgalli (grade)” value (Echinochloa crusgalli; dosage 10 g/mu) was 3 (Grade 3: the growth control rate is greater than or equal to 40% and less than 60%). For the same compound, the “Post-emergence herbicidal activity, A. theophrasti (grade)” value (Abutilon theophrasti; dosage 2.5 g/mu) was 4 (Grade 4: the growth control rate is greater than or equal to 60% and less than 85%), the “Post-emergence herbicidal activity, A. theophrasti (grade)” value (Abutilon theophrasti; dosage 5 g/mu) was 5 (Grade 5: the growth control rate is greater than or equal to 85%) and the “Post-emergence herbicidal activity, A. theophrasti (grade)” value (Abutilon theophrasti; dosage 10 g/mu) was 5 (Grade 5: the growth control rate is greater than or equal to 85%). The “Post-emergence herbicidal activity, Trifoliumre pensL. (grade)” value (Trifoliumre pensL.; dosage 2.5 g/mu) was 5 (Grade 5: the growth control rate is greater than or equal to 85%), the “Post-emergence herbicidal activity, Trifoliumre pensL. (grade)” value (Trifoliumre pensL.; dosage 5 g/mu) was 5 (Grade 5: the growth control rate is greater than or equal to 85%) and the “Post-emergence herbicidal activity, Trifoliumre pensL. (grade)” value (Trifoliumre pensL.; dosage 10 g/mu) was 5 (Grade 5: the growth control rate is greater than or equal to 85%).

For `O=C(CCl)Nc1cc(N2C(=O)C3=C(CCCC3)C2=O)c(F)cc1Cl` [Compound D2, 2-chloro-N-(2-chloro-5-(1,3-dioxo-1,3,4,5,6,7-hexahydro-2H-isoindole-2-yl)-4-fluorophenyl)acetamide], the “Post-emergence herbicidal activity, P. oleracea (grade)” value (Portulaca oleracea; dosage 10 g/mu) was 5 (Grade 5: the growth control rate is greater than or equal to 85%), the “Post-emergence herbicidal activity, A. retroflexus (grade)” value (Amaranthus retroflexus; dosage 10 g/mu) was 5 (Grade 5: the growth control rate is greater than or equal to 85%) and the “Post-emergence herbicidal activity, S. viridis (grade)” value (Setaria viridis; dosage 10 g/mu) was 3 (Grade 3: the growth control rate is greater than or equal to 40% and less than 60%). For the same compound, the “Post-emergence herbicidal activity, E. crusgalli (grade)” value (Echinochloa crusgalli; dosage 10 g/mu) was 3 (Grade 3: the growth control rate is greater than or equal to 40% and less than 60%), the “Post-emergence herbicidal activity, A. theophrasti (grade)” value (Abutilon theophrasti; dosage 10 g/mu) was 5 (Grade 5: the growth control rate is greater than or equal to 85%) and the “Post-emergence herbicidal activity, Trifoliumre pensL. (grade)” value (Trifoliumre pensL.; dosage 10 g/mu) was 5 (Grade 5: the growth control rate is greater than or equal to 85%).

For `CC(C)(CCl)C(=O)Nc1cc(N2C(=O)C3=C(CCCC3)C2=O)c(F)cc1Cl` [Compound D4, 3-chloro-N-(2-chloro-5-(1,3-dioxo-1,3,4,5,6,7-hexahydro-2H-isoindole-2-yl)-4-fluorophenyl)-2,2-dimethylpropionamide], the “Post-emergence herbicidal activity, P. oleracea (grade)” value (Portulaca oleracea; dosage 10 g/mu) was 5 (Grade 5: the growth control rate is greater than or equal to 85%), the “Post-emergence herbicidal activity, A. retroflexus (grade)” value (Amaranthus retroflexus; dosage 10 g/mu) was 5 (Grade 5: the growth control rate is greater than or equal to 85%) and the “Post-emergence herbicidal activity, S. viridis (grade)” value (Setaria viridis; dosage 10 g/mu) was 3 (Grade 3: the growth control rate is greater than or equal to 40% and less than 60%). For the same compound, the “Post-emergence herbicidal activity, E. crusgalli (grade)” value (Echinochloa crusgalli; dosage 10 g/mu) was 3 (Grade 3: the growth control rate is greater than or equal to 40% and less than 60%), the “Post-emergence herbicidal activity, A. theophrasti (grade)” value (Abutilon theophrasti; dosage 10 g/mu) was 5 (Grade 5: the growth control rate is greater than or equal to 85%) and the “Post-emergence herbicidal activity, Trifoliumre pensL. (grade)” value (Trifoliumre pensL.; dosage 10 g/mu) was 5 (Grade 5: the growth control rate is greater than or equal to 85%).

In the case of `O=C1C2=C(CCCC2)C(=O)N1c1cc(OCc2nnc(-c3ccc(Cl)cc3)o2)c(Cl)cc1F` [Compound B15], the “Post-emergence herbicidal activity, P. oleracea (grade)” value (Portulaca oleracea; dosage 2.5 g/mu) is reported as 5 (Grade 5: the growth control rate is greater than or equal to 85%), the “Post-emergence herbicidal activity, P. oleracea (grade)” value (Portulaca oleracea; dosage 5 g/mu) is reported as 5 (Grade 5: the growth control rate is greater than or equal to 85%) and the “Post-emergence herbicidal activity, P. oleracea (grade)” value (Portulaca oleracea; dosage 10 g/mu) is reported as 5 (Grade 5: the growth control rate is greater than or equal to 85%). The “Post-emergence herbicidal activity, A. retroflexus (grade)” value (Amaranthus retroflexus; dosage 2.5 g/mu) was 5 (Grade 5: the growth control rate is greater than or equal to 85%), the “Post-emergence herbicidal activity, A. retroflexus (grade)” value (Amaranthus retroflexus; dosage 5 g/mu) was 5 (Grade 5: the growth control rate is greater than or equal to 85%) and the “Post-emergence herbicidal activity, A. retroflexus (grade)” value (Amaranthus retroflexus; dosage 10 g/mu) was 5 (Grade 5: the growth control rate is greater than or equal to 85%). The “Post-emergence herbicidal activity, S. viridis (grade)” value (Setaria viridis; dosage 2.5 g/mu) was 2 (Grade 2: the growth control rate is greater than or equal to 20% and less than 40%), the “Post-emergence herbicidal activity, S. viridis (grade)” value (Setaria viridis; dosage 5 g/mu) was 3 (Grade 3: the growth control rate is greater than or equal to 40% and less than 60%) and the “Post-emergence herbicidal activity, S. viridis (grade)” value (Setaria viridis; dosage 10 g/mu) was 4 (Grade 4: the growth control rate is greater than or equal to 60% and less than 85%). For the same compound, the “Post-emergence herbicidal activity, E. crusgalli (grade)” value (Echinochloa crusgalli; dosage 2.5 g/mu) was 1 (Grade 1: the growth control rate is greater than or equal to 5% and less than 20%), the “Post-emergence herbicidal activity, E. crusgalli (grade)” value (Echinochloa crusgalli; dosage 5 g/mu) was 2 (Grade 2: the growth control rate is greater than or equal to 20% and less than 40%) and the “Post-emergence herbicidal activity, E. crusgalli (grade)” value (Echinochloa crusgalli; dosage 10 g/mu) was 3 (Grade 3: the growth control rate is greater than or equal to 40% and less than 60%). The “Post-emergence herbicidal activity, A. theophrasti (grade)” value (Abutilon theophrasti; dosage 2.5 g/mu) was 5 (Grade 5: the growth control rate is greater than or equal to 85%), the “Post-emergence herbicidal activity, A. theophrasti (grade)” value (Abutilon theophrasti; dosage 5 g/mu) was 5 (Grade 5: the growth control rate is greater than or equal to 85%) and the “Post-emergence herbicidal activity, A. theophrasti (grade)” value (Abutilon theophrasti; dosage 10 g/mu) was 5 (Grade 5: the growth control rate is greater than or equal to 85%). For the same compound, the “Post-emergence herbicidal activity, Trifoliumre pensL. (grade)” value (Trifoliumre pensL.; dosage 2.5 g/mu) was 5 (Grade 5: the growth control rate is greater than or equal to 85%), the “Post-emergence herbicidal activity, Trifoliumre pensL. (grade)” value (Trifoliumre pensL.; dosage 5 g/mu) was 5 (Grade 5: the growth control rate is greater than or equal to 85%) and the “Post-emergence herbicidal activity, Trifoliumre pensL. (grade)” value (Trifoliumre pensL.; dosage 10 g/mu) was 5 (Grade 5: the growth control rate is greater than or equal to 85%).
